The results in this text go back to patent US10844027B2, “Carboxylic diarylthiazepineamines as mu-opioid receptor agonists” (THE TRUSTEES OF COLUMBIA UNIVERSITY IN THE CITY OF NEW YORK, priority 2015, dated 2020).

The structures appear in SMILES notation. Structures can show the parent of a compound that is named as a salt.

For data set [1], the target named is T1, human delta-opioid receptor (DOR) (Homo sapiens, UniProt P41143).
T1 construct: expressed in transfected cells; host or cells: HEK-293T
In words: BRET assay measuring G protein activation, agonist activity at human DOR. The class given is cell-based. Here is the method:
The diarylthiazepinamine esters (6) and carboxylic acids (7) were tested for agonist activity at the human mu-opioid receptor (MOR) and delta-opioid receptor (DOR) using bioluminescence resonance energy transfer (BRET) assays measuring G protein activation as previously described (Table 1) (Rives, M.-L. et al. 2012; Negri, A. et al. 2013).
Human MOR or DOR cDNA was transfected alongside GαoB with RLuc8 inserted at position 91 (GαoB—RLuc8), Gβ1 (β1), and Gγ2 fused to the full-length mVenus at its N terminus (mVenus-γ2) into HEK-293T cells (5×10^6 cells/plate) in 10-cm dishes using PEI (Polysciences Inc.; Warrington, Pa.) in a 1:1 ratio diluted in Opti-MEM (Life Technologies Corp.; Grand Island, N.Y.) to assay for G protein activation as described previously (Rives, M.-L. et al. 2012; Negri, A. et al. 2013). Cells were maintained in Dulbecco's Modified Eagle Medium (high glucose #11965; Life Technologies) supplemented with 10% FBS (Premium Select, Atlanta Biologicals; Atlanta, Ga.) and 100 U/mL penicillin and 100 μg/mL streptomycin (#15140, Life Technologies). After 24 hours the media was changed, and the experiment was performed 24 hours later (48 hours after transfection).
(§1) Transfected cells were dissociated and re-suspended in phosphate-buffered saline (PBS). Approximately 200,000 cells/well were added to a black-framed, white well 96-well plate (#60050; Perkin Elmer; Waltham, Mass.). The microplate was centrifuged and the cells were re-suspended in PBS. Then 5 μM of the luciferase substrate coelenterazine H was added to each well for 5 minutes. Following coelenterazine H addition, ligands were added and the BRET signal was measured at 5 minutes on a PHERAstar FS plate reader. Quantification of the BRET signal required calculating the ratio of the light emitted by the energy acceptor, mVenus (510-540 nm), over the light emitted by the energy donor, RLuc8 (485 nm). […] Dose response curves were fit using a three-parameter logistics equation in GraphPad Prism 6.

The target in data set [2] is T2, human mu-opioid receptor (MOR) (Homo sapiens, UniProt P35372).
T2 construct: expressed in transfected cells; host or cells: HEK-293T
Kind of data set: BRET assay measuring G protein activation, agonist activity at human MOR. The class given is cell-based. The protocol:
After 24 hours the media was changed, and the experiment was performed 24 hours later (48 hours after transfection).
as §1, with “Approximately 200,000 cells/well were added to a black-framed, white well 96-well plate (#60050; Perkin Elmer; Waltham, Mass.).” left out

The nature of data set [3]: Brain pharmacokinetics of tianeptine and its 5-carbon metabolite (7i) in mice. Here is the method:
Brain samples were collected from three mice at 0.08, 0.25, 0.5, 1, 2, 4, 8 and 24 h, homogenized using ice-cold phosphate buffer saline (pH 7.4), and stored below −70° C. until analysis. Total homogenate volume was three times the tissue weight. All samples were processed for analysis by protein precipitation using acetonitrile (ACN) and analyzed with a fit-for-purpose LC/MS/MS method (LLOQ—1.01 ng/mL in brain). Pharmacokinetic parameters were calculated using the non-compartmental analysis tool of Phoenix WinNonlin® (Version 6.3).

Where [4] appears, read: brain, C57BL/6 mice, single injection (30 mg/kg, i.p.) of tianeptine.
Where [5] appears, read: brain, mice, after tianeptine 30 mg/kg i.p.
Where [6] appears, read: male, C57BL/6, mouse, in vivo, ip, 30 mg/kg.

T1 sequence (P41143 whole entry): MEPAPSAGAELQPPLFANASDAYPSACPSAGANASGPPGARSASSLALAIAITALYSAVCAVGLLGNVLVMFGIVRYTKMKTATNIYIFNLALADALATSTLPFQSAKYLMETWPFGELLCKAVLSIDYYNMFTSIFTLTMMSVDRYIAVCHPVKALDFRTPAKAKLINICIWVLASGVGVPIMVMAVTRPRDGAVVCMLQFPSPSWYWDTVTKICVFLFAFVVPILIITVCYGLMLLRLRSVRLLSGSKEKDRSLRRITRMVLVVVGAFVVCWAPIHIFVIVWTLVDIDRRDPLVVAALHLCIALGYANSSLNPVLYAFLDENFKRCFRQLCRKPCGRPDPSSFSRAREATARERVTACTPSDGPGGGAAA
T2 sequence (P35372 whole entry): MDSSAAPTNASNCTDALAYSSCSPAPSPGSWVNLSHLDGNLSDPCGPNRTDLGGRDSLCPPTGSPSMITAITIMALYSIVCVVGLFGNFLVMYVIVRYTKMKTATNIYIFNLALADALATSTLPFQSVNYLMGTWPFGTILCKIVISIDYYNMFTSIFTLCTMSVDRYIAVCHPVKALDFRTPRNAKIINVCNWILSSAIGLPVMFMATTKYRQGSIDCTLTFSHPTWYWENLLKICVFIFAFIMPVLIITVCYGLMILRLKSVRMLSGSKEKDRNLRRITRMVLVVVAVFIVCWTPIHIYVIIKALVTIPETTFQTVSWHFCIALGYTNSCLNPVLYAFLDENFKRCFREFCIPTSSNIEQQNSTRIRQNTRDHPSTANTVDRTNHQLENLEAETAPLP

`CN1c2ccccc2C(NCCCCCCC(=O)O)c2ccc(Cl)cc2S1(=O)=O` (stereo not shown) [Tianeptine, tianeptine, reference compound] showed an EC50 in data set [1] of 37.4 ± 11.2 µM.
Turning to `CCOC(=O)CCCCCNC1c2ccccc2N(C)S(=O)(=O)c2cc(I)ccc21` (stereo not shown) [Compound 6g, Ethyl 6-((3-iodo-6-methyl-5,5-dioxido-6,11l-dihydrodibenzo[c,f][1,2]thiazepin-11-yl)amino)hexanoate], the EC50 amounted to 0.0485 ± 0.0049 µM in data set [2] and 8.5 ± 6.3 µM in data set [1].
On the same counts, the results for `CCOC(=O)CCCNC1c2ccccc2N(C)S(=O)(=O)c2cc(Br)ccc21` (stereo not shown) [Compound 6c, Ethyl 4-((3-bromo-6-methyl-5,5-dioxido-6,11-dihydrodibenzo[c,f][1,2]thiazepin-11-yl)amino)butanoate] are 0.27 ± 0.038 µM and above 10 µM.
On the same counts, the results for `CN1c2ccccc2C(NCCC(=O)O)c2ccc(Br)cc2S1(=O)=O` (stereo not shown) [Compound 7a, 3-((3-Bromo-6-methyl-5,5-dioxido-6,1-dihydrodibenzo[c,f][1,2]thiazepin-11-yl)amino)propanoic acid hydrochloride salt] are 4.7 ± 1.4 µM and above 10 µM.
Regarding `CN1c2ccccc2C(NCCCCC(=O)O)c2ccc(I)cc2S1(=O)=O` (stereo not shown) [Compound 7e, 5-((3-Iodo-6-methyl-5,5-dioxido-6,11-dihydrodibenzo[c,f][1,2]thiazepin-11-yl)amino)pentanoic acid hydrochloride salt], the EC50 in data set [2] was 0.0183 ± 0.0002 µM; in data set [1], 8.9 ± 0.007 µM.
As to `CCOC(=O)CCCCNC1c2ccccc2N(C)S(=O)(=O)c2cc(Br)ccc21` (stereo not shown) [Compound 6d, Ethyl 5-((3-bromo-6-methyl-5,5-dioxido-6,11-dihydrodibenzo[c,f][1,2]thiazepin-11-yl)amino)pentanoate], it took 0.12 µM to reach a half-maximal effect in data set [2] (EC50).
Consider `CCOC(=O)CCCCNC1c2ccccc2N(C)S(=O)(=O)c2cc(Cl)ccc21` (stereo not shown) [Compound 6i, Ethyl 5-((3-chloro-6-methyl-5,5-dioxido-6,11-dihydrodibenzo[c,f][1,2]thiazepin-11-yl)amino)pentanoate], for which the EC50 in data set [2] is 0.533 ± 0.267 µM; in data set [1] it was above 10 µM.
On the same counts, the results for `CCOC(=O)CCCCNC1c2ccccc2N(C)S(=O)(=O)c2cc(I)ccc21` (stereo not shown) [Compound 6e, Ethyl 5-((3-iodo-6-methyl-5,5-dioxido-6,11-dihydrodibenzo[c,f][1,2]thiazepin-11-yl)amino)pentanoate] are 0.0282 ± 0.0032 µM and 6.8 ± 0.03 µM.
On the same counts, the results for `CCOC(=O)CCNC1c2ccccc2N(C)S(=O)(=O)c2cc(Br)ccc21` (stereo not shown) [Compound 6a, Ethyl 3-((3-bromo-6-methyl-5,5-dioxido-6,11l-dihydrodibenzo[c,f][1,2]thiazepin-11-yl)amino)propanoate] are 5.9 ± 1 µM and above 10 µM.
Taken in the same sequence, the figures for `CN1c2ccccc2C(NCCCC(=O)O)c2ccc(Br)cc2S1(=O)=O` (stereo not shown) [Compound 7c, 4-((3-Bromo-6-methyl-5,5-dioxido-6,11-dihydrodibenzo[c,f][1,2]thiazepin-11-yl)amino)butanoic acid hydrochloride salt] were 2 ± 0.3 µM and above 10 µM.
With `CN1c2ccccc2C(NCCCCC(=O)O)c2ccc(Br)cc2S1(=O)=O` (stereo not shown) [Compound 7d, 5-((3-Bromo-6-methyl-5,5-dioxido-6,11-dihydrodibenzo[c,f][1,2]thiazepin-11-yl)amino)pentanoic acid hydrochloride salt], the EC50 is 0.405 µM in data set [2] and above 10 µM in data set [1].
On the same counts, the results for `CN1c2ccccc2C(NCCCCCC(=O)O)c2ccc(I)cc2S1(=O)=O` (stereo not shown) [Compound 7g, 6-((3-Iodo-6-methyl-5,5-dioxido-6,11-dihydrodibenzo[c,f][1,2]thiazepin-11-yl)amino)hexanoic acid hydrochloride salt] are 0.0243 ± 0.0045 µM and 5.1 ± 1.4 µM.
Consider `CCOC(=O)CCNC1c2ccccc2N(C)S(=O)(=O)c2cc(I)ccc21` (stereo not shown) [Compound 6b, Ethyl 3-((3-iodo-6-methyl-5,5-dioxido-6,11-dihydrodibenzo[c,f][1,2]thiazepin-11-yl)amino)propanoate], for which the EC50 is 1.6 ± 0.2 µM in data set [2] and above 10 µM in data set [1].
For the molecule `CCOC(=O)CCCCCNC1c2ccccc2N(C)S(=O)(=O)c2cc(Cl)ccc21` (stereo not shown) [Compound 6j, Ethyl 6-((3-chloro-6-methyl-5,5-dioxido-6,11-dihydrodibenzo[c,f][1,2]thiazepin-11-yl)amino)hexanoate], the figures for the EC50 in data set [2] and in data set [1] were 0.318 ± 0.162 µM and 13.9 ± 4.8 µM, respectively.
On the same counts, the results for `CN1c2ccccc2C(NCCC(=O)O)c2ccc(I)cc2S1(=O)=O` (stereo not shown) [Compound 7b, 3-((3-Iodo-6-methyl-5,5-dioxido-6,11-dihydrodibenzo[c,f][1,2]thiazepin-11-yl)amino) propanoic acid hydrochloride salt] are 1.2 ± 0.3 µM and above 10 µM.
Taken in the same sequence, the figures for `CN1c2ccccc2C(NCCC(=O)O)c2ccc(Cl)cc2S1(=O)=O` (stereo not shown) [Compound 7h, 3-((3-Chloro-6-methyl-5,5-dioxido-6,11-dihydrodibenzo[c,f][1,2]thiazepin-11-yl)amino)propanoic acid hydrochloride salt] were 24.9 ± 12.6 µM and above 10 µM.
As for `CCOC(=O)CCCCCNC1c2ccccc2N(C)S(=O)(=O)c2cc(Br)ccc21` (stereo not shown) [Compound 6f, Ethyl 6-((3-bromo-6-methyl-5,5-dioxido-6,11-dihydrodibenzo[c,f][1,2]thiazepin-11-yl)amino)hexanoate], the EC50 worked out at 0.0908 ± 0.0314 µM in data set [2] and 11.7 ± 0.06 µM in data set [1].
In data set [2], `CN1c2ccccc2C(NCCCCC(=O)O)c2ccc(Cl)cc2S1(=O)=O.Cl` (stereo not shown) [Compound 7i, 5-((3-Chloro-6-methyl-5,5-dioxido-6,11-dihydrodibenzo[c,f][1,2]thiazepin-11-yl)amino)pentanoic acid hydrochloride salt] returned an EC50 of 0.361 ± 0.0929 µM. For the same molecule, in data set [3] (setting [4]), the AUClast amounted to 5963 ng·h/g and the CL is given as 78 mL/min/kg. Also, in data set [3] (setting [5]), the “brain exposure (as measured by AUC) compared to the parent compound (tianeptine)” value is “greater” and the “half-life compared to the parent compound (tianeptine)” value is “significantly longer”. Moreover, in data set [3] (setting [6]), the Cmax is 2860 ng/g, the Tmax amounted to 0.5 h and the half-life was 2.33 h. This molecule also showed an EC50 in data set [1] above 10 µM.
In the case of `CN1c2ccccc2C(NCCCCCC(=O)O)c2ccc(Br)cc2S1(=O)=O` (stereo not shown) [Compound 7f, 6-((3-Bromo-6-methyl-5,5-dioxido-6,11-dihydrodibenzo[c,f][1,2]thiazepin-11-yl)amino)hexanoic acid hydrochloride salt], the EC50 in data set [2] stood at 0.133 ± 0.0132 µM; in data set [1] it was 23.7 ± 1.5 µM.
